According to patent US6355799B1, “Substituted benzene compounds, process for their preparation, and herbicidal and defoliant compositions containing them” (ISK Americas Incorporated, priority 1997, dated 2002):

How the values were obtained:
Assay type in all cases: in vivo
[1] = system: upland rice (Oryza sp., var. Tebonnet, RICE); test: Pre-emerge test, crop safety; conditions: crop damage rating 0-100, 14 days after application
How it was run: (§1)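 Rating: 0–100 visual injury, 14 DAA. Application: acetone, 187 l/ha, 15–1000 g ai/ha, flat-fan track sprayer with nozzle 40–45 cm above soil or canopy. Post-emerge runs used 0.25% v/v surfactant on 2–3 leaf plants.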

[2] = system: field corn (Zea mays L., var. Dekalb 535, CORN); test: Pre-emerge test, crop safety; conditions: crop damage rating 0-100, 14 days after application
How it was run: as §1

[3] = system: ivyleaf morningglory (Ipomoea hederacea, IPOHE); test: Pre-emerge test, greenhouse herbicide activity screening; conditions: phytotoxicity rating 0-100, 14 days after application
Text: (§2) A standard greenhouse herbicide activity screening system was used to evaluate the herbicidal efficacy and crop safety of these test compounds. Seven broadleaf weed species including redroot pigweed (Amaranthus retroflexus, AMARE, velvetleaf (Abutilon theophrasti, ABUTH), sicklepod (Cassia obtusifolia, CASOB), ivyleaf morningglory (Ipomoea hederacea, IPOHE), lambsquarters (Chenopodium album, CHEAL), common ragweed (Ambrosia artemisizfolia L., AMBEL), and cocklebur (Xanthium strumarium, XANST) were used as test species. Four grass weed species including green foxtail (Setaria viridis, SETVI), barnyardgrass (Echinochloa crus-galli, ECHCG), johnsongrass (Sorghum halepense, SORHA), and large crabgrass (Digitaria sanguinalis, DIGSA) were also used. In addition, three crop species, field corn (Zea mays L., var. Dekalb 535, CORN), soybean (Glycine max L., var. Pella 86, SOY), and is upland rice (Oryza sp., var. Tebonnet, RICE) were included.
(§3) All plants were grown in 10 cm square plastic pots which were filled with a sandy loam soil mix. For pre-emerge tests, seeds were planted one day prior to application of the test compounds. For post-emerge tests, seeds were planted 8-21 days prior to the test to allow emergence and good foliage development prior to application of the test substances. At the time of the post-emerge application, plants of all species were usually at the 2-3 leaf stage of development.
(§4) All test compounds Were dissolved in acetone and applied to the test units in a volume of 187 l /ha. Test materials were applied at rates ranging from 15 g ai/ha to 1000 g ai/ha using a track sprayer equipped with a TJ8001E even flow flat fan spray nozzle. Plants were arranged on a shelf so that the top of the canopy (post-emerge) or top of the soil surface (pre-emerge) was 40-45 cm below the nozzle. Pressurized air was used to force the test solution through the nozzle as it was mechanically advanced (via electrically driven chain drive) over the top of all test plants/pots. This application simulates a typical commercial field herbicide application.
(§5) In the post-emerge test, a commercial non-ionic surfactant was also included (0.25% v/v) to enhance wetting of the leaf surfaces of target plants. Immediately after application, test units of the pre-emerge applications were watered at the soil surface to incorporate the test materials. Subsequently, these test units were bottom-watered. Post-emerge test units were always bottom-watered.
(§6) At 14 days after application of the test materials, phytotoxicity ratings were recorded. A rating scale of 0-100 was used as previously described in Research Methods in Weed Science, 2nd edition, B. Truelove, Ed., Southern Weed Science Society, Auburn University, Auburn, Ala. 1977. Briefly, “0” corresponds to no damage and “100” corresponds to complete death of all plants in the test unit. This scale was used both to determine efficacy against weed species and damage to crop species. Herbicide activity data for various compounds of this invention, which are shown by compound No. in Tables 1-8, are shown in Tables 11 and 12.

[4] = system: lambsquarters (Chenopodium album, CHEAL); test: as above; conditions: phytotoxicity rating 0-100, 14 days after application
Text: as §2, §3, §4, §5, §6

[5] = system: green foxtail (Setaria viridis, SETVI); test: as above; conditions: phytotoxicity rating 0-100, 14 days after application
Text: as §2, §3, §4, §5, §6

[6] = system: velvetleaf (Abutilon theophrasti, ABUTH); test: as above; conditions: phytotoxicity rating 0-100, 14 days after application
Text: as §2, §3, §4, §5, §6

[7] = system: barnyardgrass (Echinochloa crus-galli, ECHCG); test: as above; conditions: phytotoxicity rating 0-100, 14 days after application
Text: as §2, §3, §4, §5, §6

[8] = system: sicklepod (Cassia obtusifolia, CASOB); test: as above; conditions: phytotoxicity rating 0-100, 14 days after application
Text: as §2, §3, §4, §5, §6

[9] = system: large crabgrass (Digitaria sanguinalis, DIGSA); test: as above; conditions: phytotoxicity rating 0-100, 14 days after application
Text: as §2, §3, §4, §5, §6

[10] = system: upland rice (Oryza sp., var. Tebonnet, RICE); test: Post-emerge test, crop safety; conditions: post-emerge, 14 days after application, rating scale 0-100
How it was run: (§7)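 Compounds in acetone were track-sprayed at 187 l/ha, 15–1000 g ai/ha, onto sandy loam pots. Pre-emerge seeds were sown one day before spraying, with surface watering afterwards. Post-emerge plants were at the 2–3 leaf stage and sprayed with 0.25% v/v non-ionic surfactant. Injury was rated 0–100 at 14 days.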

[11] = system: field corn (Zea mays L., var. Dekalb 535, CORN); test: Post-emerge test, crop safety; conditions: post-emerge, 14 days after application, rating scale 0-100
How it was run: as §7

[12] = system: redroot pigweed (Amaranthus retroflexus, AMARE); test: Pre-emerge test, greenhouse herbicide activity screening; conditions: phytotoxicity rating 0-100, 14 days after application
How it was run: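 Plants grown in 10 cm pots of sandy loam mix received acetone-dissolved compounds through a moving flat-fan nozzle. Doses ranged from 15 to 1000 g ai/ha. Pre-emerge pots were seeded one day earlier, post-emerge pots 8–21 days earlier. Fourteen days on, each pot was graded 0–100 for damage.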

[13] = system: ivyleaf morningglory (Ipomoea hederacea, IPOHE); test: Post-emerge test, greenhouse herbicide activity screening; conditions: post-emerge, 14 days after application, rating scale 0-100
Text: as §2, §3, §4, §5, §6

[14] = system: lambsquarters (Chenopodium album, CHEAL); test: as above; conditions: post-emerge, 14 days after application, rating scale 0-100
Text: as §2, §3, §4, §5, §6

[15] = system: green foxtail (Setaria viridis, SETVI); test: as above; conditions: post-emerge, 14 days after application, rating scale 0-100
Text: as §2, §3, §4, §5, §6

[16] = system: velvetleaf (Abutilon theophrasti, ABUTH); test: as above; conditions: post-emerge, 14 days after application, rating scale 0-100
Text: as §2, §3, §4, §5, §6

[17] = system: barnyardgrass (Echinochloa crus-galli, ECHCG); test: as above; conditions: post-emerge, 14 days after application, rating scale 0-100
Text: as §2, §3, §4, §5, §6

[18] = system: redroot pigweed (Amaranthus retroflexus, AMARE); test: as above; conditions: post-emerge, 14 days after application
Text: as §2, §3, §4, §5, §6

[19] = system: sicklepod (Cassia obtusifolia, CASOB); test: as above; conditions: post-emerge, 14 days after application, rating scale 0-100
Text: as §2, §3, §4, §5, §6

[20] = system: large crabgrass (Digitaria sanguinalis, DIGSA); test: as above; conditions: post-emerge, 14 days after application, rating scale 0-100
Text: as §2, §3, §4, §5, §6

Structure (SMILES): COc1c(Cl)cc(F)c(-n2c(=O)cc(C(F)(F)F)n(C)c2=O)c1NC(=O)OC(C)c1ccccc1 (stereo not shown) [4-47]
- Pre-emerge Herbicidal Activity RICE ([1]; 63 g ai/ha): 20
- Pre-emerge Herbicidal Activity RICE ([1]; 250 g ai/ha): 70
- Pre-emerge Herbicidal Activity CORN ([2]; 63 g ai/ha): 30
- Pre-emerge Herbicidal Activity CORN ([2]; 250 g ai/ha): 90
- Pre-emerge Herbicidal Activity IPOHE ([3]; 63 g ai/ha): 30
- Pre-emerge Herbicidal Activity IPOHE ([3]; 250 g ai/ha): 100
- Pre-emerge Herbicidal Activity CHEAL ([4]; 63 g ai/ha): 100
- Pre-emerge Herbicidal Activity CHEAL ([4]; 250 g ai/ha): 100
- Pre-emerge Herbicidal Activity SETVI ([5]; 63 g ai/ha): 80
- Pre-emerge Herbicidal Activity SETVI ([5]; 250 g ai/ha): 100
- Pre-emerge Herbicidal Activity ABUTH ([6]; 63 g ai/ha): 100
- Pre-emerge Herbicidal Activity ABUTH ([6]; 250 g ai/ha): 100
- Pre-emerge Herbicidal Activity ECHCG ([7]; 63 g ai/ha): 60
- Pre-emerge Herbicidal Activity ECHCG ([7]; 250 g ai/ha): 98
- Pre-emerge Herbicidal Activity CASOB ([8]; 63 g ai/ha): 0
- Pre-emerge Herbicidal Activity CASOB ([8]; 250 g ai/ha): 70
- Pre-emerge Herbicidal Activity DIGSA ([9]; 63 g ai/ha): 70
- Pre-emerge Herbicidal Activity DIGSA ([9]; 250 g ai/ha): 100
- phytotoxicity rating RICE (crop damage) ([10]; 63 g ai/ha): 30
- phytotoxicity rating RICE (crop damage) ([10]; 250 g ai/ha): 60
- phytotoxicity rating CORN (crop damage) ([11]; 63 g ai/ha): 30
- phytotoxicity rating CORN (crop damage) ([11]; 250 g ai/ha): 65
- Pre-emerge Herbicidal Activity AMARE ([12]; 63 g ai/ha): 70
- Pre-emerge Herbicidal Activity AMARE ([12]; 250 g ai/ha): 100
- phytotoxicity rating IPOHE ([13]; 63 g ai/ha): 85
- phytotoxicity rating IPOHE ([13]; 250 g ai/ha): 100
- phytotoxicity rating CHEAL ([14]; 63 g ai/ha): 100
- phytotoxicity rating CHEAL ([14]; 250 g ai/ha): 100
- phytotoxicity rating SETVI ([15]; 63 g ai/ha): 40
- phytotoxicity rating SETVI ([15]; 250 g ai/ha): 60
- phytotoxicity rating ABUTH ([16]; 63 g ai/ha): 100
- phytotoxicity rating ABUTH ([16]; 250 g ai/ha): 10
- phytotoxicity rating ECHCG ([17]; 63 g ai/ha): 30
- phytotoxicity rating ECHCG ([17]; 250 g ai/ha): 50
- phytotoxicity rating AMARE ([18]; 63 g ai/ha, rating scale 0-100 (0 no damage, 100 complete death)): 75
- phytotoxicity rating AMARE ([18]; 250 g ai/ha, rating scale 0-100): 95
- phytotoxicity rating CASOB ([19]; 63 g ai/ha): 100
- phytotoxicity rating CASOB ([19]; 250 g ai/ha): 100
- phytotoxicity rating DIGSA ([20]; 63 g ai/ha): 40
- phytotoxicity rating DIGSA ([20]; 250 g ai/ha): 30
